Test results taken from US20220089646A1 (THE UNIVERSITY OF QUEENSLAND, priority 2019, published 2022).
pIC50: −log10 of the molar value. *1 amine or outer side, *2 acyl side, *3 side chain or, on linkers, in order; H or OH if unused. Where a SMILES comes first, the peptide text is derived from it. Bridges are numbered along the chain shown (N, C = ends). [ ]: non-standard residue; d: D form. NHCH2CMe2S = CC(C)(CN[*:1])S[*:2]

What was measured:
[1] = target: T1, KOP (Homo sapiens, UniProt P41145); assay: In vitro cAMP activity at KOP (Table 10); assay type: cell-based; conditions: cAMP inhibition, four-parameter regression, normalised to U50488H
Experimental: The CP series compounds were assayed as follows: The assay was performed using a 96 well ½ area plate. The different cAMP standard solutions (3 μL/well) were plated in duplicate. The different concentrations of drug (3 μL/well), and control solutions (3 μL/well) were plated in triplicate. Following this, the acceptor bead mixture (3 μL/well) was added to the respective sets—either cAMP standard curve or the treatment. This was covered and incubated on the orbital shaker for 60 minutes at 37° C. Then, the donor bead mixture (10 μL/well) was added to each well. This was incubated at room temperature overnight on the orbital shaker.
For DP-11-06 the assay was carried out in the same way as for the CP compounds except it was incubated for 30 mins at 37° C.
For the CP series compounds and DP-11-06, the Ensight® Multimode Plate Reader was used to quantify the fluorescence units of each plate. Before reading, each plate was centrifuged at 280 g for 30 seconds. Using GraphPad Prism7® Software, cAMP concentrations were determined by fit spline/LOWESS analysis. The cAMP standard curve was used for interpolation at this point. The cAMP concentrations were then normalized to the highest cAMP concentration recorded and analyzed by one-way ANOVA for multiple comparisons. The IC50 for each compound was then calculated using GraphPad Prism7® with non-linear regression analysis using four parameter curve fitting.
The results shown in Table 10 utilized rat plasma. • Note that DP-7-11 and CP5 represent the same compound, and DP-7-12 and CP6 are the same compound. In this regard, a different regression analysis method was adopted on the above cAMP experiments. Particularly, a new non-linear regression (four-parameter) was adopted to better account for hill slope, thereby improving the regression fit.

[2] = target: T1, KOP; assay: Inhibition of Forskolin-induced cAMP production in HEK-KOP cells (AlphaScreen, DP series); assay type: cell-based; conditions: for IC80: approximate IC80, 'EC anything' protocol; for cAMP response, HEK-KOP: concentration-response curve, % cAMP
Experimental: DP-7-11 and DP-7-12 were assessed for the ability to inhibit cAMP production in HEK-DOP and HEK KOP cells.
The HEK-293 DOP (HEK-DOP) and HEK-293 KOP (HEK-KOP) cell lines were cultured in a T75 flask, in Dulbeco's Modified Eagle's Medium (DMEM) complete with 10% (v/v) fetal bovine serum (FBS) and 1% (v/v) Geneticin. Cells were incubated in a humidified atmosphere of 37° C. (95% air and 5% CO2). Cells were passaged at 80-90% confluence and media was changed every two days.
Stimulation buffer and Lysis buffer were prepared fresh on the day of each assay. Stimulation buffer contained 19.5 mL Hanks buffered saline solution, Bovine serum albumin (BSA) 0.1% (w/v), 0.5 mM 3-Isobutyl-1-methylxanthine (IBMX) and 5 mM HEPES (4-(2-hydroxyethyl)-1-piperazineethanesulfonic acid). Lysis buffer contained 19 mL Mili-Q H2O, BSA 0.1% (w/v), 0.3% (v/v) 10% Tween-20, and 5 mM HEPES. Both buffers were adjusted to pH 7.4 with NaOH.
The cAMP standard dilution series was prepared from the 50 μM cAMP standard solution provided by the cAMP assay kit. The standard solution was vortexed before being serially diluted to provide a concentration range of 5×10^−6 M to 5×10^−11 M in ½ Log intervals.
For this assay, Forskolin was optimised at 50 μM/well. 25 mM stocks were used to prepare 0.2 mM Forskolin. The concentration of Forskolin prepared was 4 times the required concentration in the well to account for further dilution in the well. 0.1 mM Forskolin solution was then made from this and used to dilute the peptide solutions.
DP-7-11 and DP-7-12 provided in powder form and reconstituted to 10 mM stock solutions and diluted to 1 mM working stocks using Mili-Q H2O. Each peptide solution was serially diluted to give concentrations of 1×10^−6 to 3×10^−7 M with stimulation buffer.
Stimulation buffer was added to the 0.2 mM Forskolin solution in a 1:1 ratio to prepare the Forskolin only treatment solution. This was the positive control. Stimulation buffer was used as the negative control.
Cells were harvested from two T75 flasks on the day of experimentation. Identical protocol was used for both DOP and KOP cells. The cells were first removed from the incubator and washed with Versene®. The cells were then incubated in 2 mL of Versene® at 37° C. for 5 minutes. Following this, the mixture was made up to 5 mL with Versene® in a centrifuge tube. This was centrifuged at 1300 rpm for 2 minutes at 23° C. The supernatant was then decanted and the cells resuspended in 100 μL stimulation buffer for counting. A hemocytometer was used to count the cells. This assay required the concentration of cells to be 13300 cells/μL
This method was used to conduct all cAMP Alphascreen assays. The acceptor bead mixture consisted of acceptor beads and stimulation buffer mixed according to the ratio 1:35 given in the kit. From this, the acceptor beads mixture was used to prepare separate mixtures for the cAMP standard curve and for the treatment wells of the assay. For the treatment wells, the beads were mixed with cells in a 1:1 ratio. For the cAMP standard curve, the beads were mixed with more stimulation buffer in a 1:1 ratio. The donor bead mixture consisted of donor beads, biotinylated cAMP and lysis buffer mixed in the ratio 1:3:300.
The DP series compounds were assayed as follows: The assay was performed using a 96 well ½ area plate. The different cAMP standard solutions (3 μL/well) were plated in duplicate. The different concentrations of drug (3 μL/well), and control solutions (3 μL/well) were plated in triplicate. […]

T1 sequence (P41145 whole entry): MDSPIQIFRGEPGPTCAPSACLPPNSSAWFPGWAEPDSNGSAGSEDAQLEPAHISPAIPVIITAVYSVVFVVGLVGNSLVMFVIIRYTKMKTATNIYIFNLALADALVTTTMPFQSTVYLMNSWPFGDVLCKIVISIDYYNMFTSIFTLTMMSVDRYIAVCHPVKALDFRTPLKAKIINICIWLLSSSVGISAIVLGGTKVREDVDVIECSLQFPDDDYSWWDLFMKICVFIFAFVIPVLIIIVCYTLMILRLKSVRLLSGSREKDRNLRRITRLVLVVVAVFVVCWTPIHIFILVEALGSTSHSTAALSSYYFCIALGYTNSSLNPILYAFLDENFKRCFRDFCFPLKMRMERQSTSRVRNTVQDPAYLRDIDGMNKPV

| Structure (SMILES) | EC50 [1] | pIC50 ([2]; Forskolin 50 μM/well, 95% CI in brackets) | IC80 [2] | cAMP response, HEK-KOP [2] |
| --- | --- | --- | --- | --- |
| CC1(C)CNC(=O)C[C@H](C(=O)N[C@@H](CCCNC(=N)N)C(=O)N[C@@H](CCCNC(=N)N)C(N)=O)NC(=O)[C@H](Cc2ccccc2)NC(=O)CNC(=O)[C@@H](NC(=O)[C@@H](N)Cc2ccc(O)cc2)CSS1 [DP-7-11, c(Tyr-SSa-Gly-Phe-D(Asp)-Arg-Arg)] | > 10000 nM | 8.30 | 30 nM | 13.73% |
| CC1(C)CNC(=O)C[C@@H](NC(=O)[C@@H](N)Cc2ccc(O)cc2)C(=O)NCC(=O)N[C@@H](Cc2ccccc2)C(=O)N[C@H](C(=O)N[C@@H](CCCNC(=N)N)C(=O)N[C@@H](CCCNC(=N)N)C(N)=O)CSS1 [DP-7-12, c(Tyr-D(Asp)-Gly-Phe-SSa-Arg-Arg)] (H-Y[dD]GFCRR-NH2; linker 2-5 via NHCH2CMe2S) | 160 nM |  | 28.8 nM | 25.88% |
